Here are results for five compounds from EP0694299B1, “The use of( a) bicycloheptane derivative(s)” (EGIS GYOGYSZERGYAR RT., priority 1994, dated 1996).

Where two headings read alike, the source gives them in different places.

The assay concerns cholecyst contraction induced by yolk. Briefly: Inhibition of yolk-induced gallbladder (cholecyst) mass decrease in mice. The format is in vivo, male mice from the strain NMRI. The note with it: Mus musculus, po. On the procedure:
The effect of the bicycloheptane derivatives used according to the invention is verified on the following test. Known spasmolytics 1-[3',4'-di-(ethoxy)-benzyliden]-6,7-di-- [ethoxy] -1,2,3,4-terra-[hydro] -isoquinoline {drotaverine} and 1- [3',4'-di-(methoxy)-benzyl]-6,7-di-[methoxy] -isoquinoline {papaverine} are employed for comparison. (These spasmolytics are most often used in the therapeutical practice).
The tests were performed on male mice from the strain NMRI in groups consisting of 8 to 12 animals. At the beginning of the test, the animals were weighing 20 to 30 g.
The animals were starved for 24 hours before beginning the first treatment, however, they were allowed to consume water ad libitum. The compounds to be tested and the carrier (0.4% solution of methyl cellulose) were administered perorally in a volume of 10 ml/kg.
45 minutes after this treatment, an emulsion of 30% of yolk in 0.4% methyl cellulose solution was administered perorally. Each mouse consumed 0.5 ml of the emulsion. The animals of the control group consumed 0.5 ml of the carrier i.e. 0.4% methyl cellulose solution.
After 15 minutes, cervicalis dislocatio was employed, the gallbladders were removed and weighed, one by one. The effect of the compounds tested was given as the inhibition of the cholecyst mass decrease induced by yolk, in percentage. […] Table

Setting [1] is: dose causing 50% inhibition of the cholecyst mass decrease induced by yolk, p.o. 45 min before 30% yolk emulsion, gallbladders weighed 15 min later, linear regression, read-out: ID50 p.o.

`CC1(C)[C@@H]2CC[C@@]1(C)[C@@](OCC[N+](C)(C)[O-])(c1ccccc1)C2` [(1R,2S,4R)-(-)-2-[Phenyl]-2-[2'-(dimethylamino)-ethoxy]-1,7,7-tri-[methyl]-bicyclo[2.2.1]heptane-N-oxide (E)-2-butenedioate]: the ED50 under setting [1] was > 100 mg/kg.
On the same count and under the same terms, with `CCOc1ccc(/C=C2\NCCc3cc(OCC)c(OCC)cc32)cc1OCC` [Drotaverine, 1-[3',4'-di-(Ethoxy)-benzyliden]-6,7-di-[ethaxy]-1,2,3,4-tetra-[hydro]-isoquinoline, reference compound] the figure was > 100 mg/kg.
In the case of `CN(C)CCO[C@@]1(c2ccccc2)C[C@@H]2CC[C@@]1(C)C2(C)C.O=C(O)/C=C/C(=O)O` [(1S,2R,4S)-(+)-2-[Phenyl] -2-[2'-(dimethylamino)-ethoxy]-1,7,7-tri-[methyl] -bicyclo[2.2.1]heptane (E) -2-butenedioate], the ED50 under setting [1] was > 100 mg/kg.
In the case of `COc1ccc(Cc2nccc3cc(OC)c(OC)cc23)cc1OC` [Papaverine, 1-[3',4'-di-(Methoxy)-benzyl]-6,7-di-[methoxy]-isoquinoline, reference compound], the ED50 (read-out: ID50 p.o. in mg/kg) is > 100 mg/kg.
In the case of `CN(C)CCO[C@]1(c2ccccc2)C[C@H]2CC[C@]1(C)C2(C)C.O=C(O)/C=C/C(=O)O` [(1R,2S,4R)-(-)-2-[Phenyl]-2-[2'-(dimethylamino)-ethoxy]-1,7,7-tri-[methyl] -bicyclo[2.2.1]heptane (E)-2-butenedioate], under setting [1], the ED50 came out at 7 mg/kg.
